Source: publication PMC5218480 (PLoS ONE, 2017)

Test system: MV-4-11 cells
Assay: Gene expression microarray analysis (Affymetrix PrimeView) and GSEA
Format: cell-based, human
Parameters: RFU PODN (11730768_x_at) / Fold change /veh PODN (11730768_x_at) / RFU LINC00158 (11744669_a_at) / Fold change /veh LINC00158 (11744669_a_at) / RFU DUSP10 (11751237_a_at) / Fold change /veh DUSP10 (11751237_a_at) / RFU ID3 (11757404_x_at) / Fold change /veh ID3 (11757404_x_at) / RFU PLEKHG5 (11737974_s_at) / Fold change /veh PLEKHG5 (11737974_s_at) / RFU LRRC4B (11730491_at) / Fold change /veh LRRC4B (11730491_at) / RFU GIMAP4 (11747438_a_at) / Fold change /veh GIMAP4 (11747438_a_at) / RFU KRT8 (11758183_x_at) / Fold change /veh KRT8 (11758183_x_at) / RFU CNN1 (11734310_a_at) / Fold change /veh CNN1 (11734310_a_at) / RFU VPS37D (11726825_at) / Fold change /veh VPS37D (11726825_at) / RFU C10orf10 (11716522_x_at) / Fold change /veh C10orf10 (11716522_x_at) / RFU KIR2DL2 /// KIR2DL4 /// KIR2DL5A /// KIR2DL5B /// KIR2DS1 /// KIR2DS2 /// KIR2DS3 /// KIR2DS4 /// KIR3DL3 /// KIR3DL3 /// KIR3DS1 (11738374_at) / Fold change /veh KIR2DL2 /// KIR2DL4 /// KIR2DL5A /// KIR2DL5B /// KIR2DS1 /// KIR2DS2 /// KIR2DS3 /// KIR2DS4 /// KIR3DL3 /// KIR3DL3 /// KIR3DS1 (11738374_at) / RFU C1QL1 (11718748_at) / Fold change /veh C1QL1 (11718748_at) / RFU TMPRSS4 (11747572_a_at) / Fold change /veh TMPRSS4 (11747572_a_at) / RFU HAMP (11756126_x_at) / Fold change /veh HAMP (11756126_x_at) / RFU RNFT2 (11725882_a_at) / Fold change /veh RNFT2 (11725882_a_at) / RFU NR4A2 (11747474_a_at) / Fold change /veh NR4A2 (11747474_a_at) / RFU ABCC12 (11746883_a_at) / Fold change /veh ABCC12 (11746883_a_at) / RFU TMEM136 (11760407_x_at) / Fold change /veh TMEM136 (11760407_x_at) / RFU CLDN22 /// WWC2 (11732394_at) / Fold change /veh CLDN22 /// WWC2 (11732394_at) / RFU HLA-DPB1 (11760878_x_at) / Fold change /veh HLA-DPB1 (11760878_x_at) / RFU SPINT1 (11716480_a_at) / Fold change /veh SPINT1 (11716480_a_at) / RFU GAP43 (11754022_s_at) / Fold change /veh GAP43 (11754022_s_at) / RFU A4GNT (11735810_at) / Fold change /veh A4GNT (11735810_at) / RFU PRB3 (11715151_x_at) / Fold change /veh PRB3 (11715151_x_at) / RFU TUBB4B (11761932_at) / Fold change /veh TUBB4B (11761932_at) / RFU CAPN14 (11732068_a_at) / Fold change /veh CAPN14 (11732068_a_at) / RFU TMCC2 (11721928_a_at) / Fold change /veh TMCC2 (11721928_a_at) / RFU IRGQ (11745062_a_at) / Fold change /veh IRGQ (11745062_a_at) / RFU FAM174B (11720279_a_at) / Fold change /veh FAM174B (11720279_a_at) / RFU TMPRSS4 (11748680_a_at) / Fold change /veh TMPRSS4 (11748680_a_at) / RFU FAM212B (11763350_a_at) / Fold change /veh FAM212B (11763350_a_at) / RFU PLEKHG5 (11743358_a_at) / Fold change /veh PLEKHG5 (11743358_a_at) / RFU ZSCAN30 (11745921_a_at) / Fold change /veh ZSCAN30 (11745921_a_at) / RFU CMKLR1 (11741424_a_at) / Fold change /veh CMKLR1 (11741424_a_at) / RFU LOC101060620 /// MAPK8IP1 (11723275_at) / Fold change /veh LOC101060620 /// MAPK8IP1 (11723275_at) / RFU SPTSSB (11747773_x_at) / Fold change /veh SPTSSB (11747773_x_at) / RFU PRSS12 (11739890_at) / Fold change /veh PRSS12 (11739890_at) / RFU BIN1 (11741810_x_at) / Fold change /veh BIN1 (11741810_x_at) / RFU WNT11 (11732464_a_at) / Fold change /veh WNT11 (11732464_a_at) / RFU C10orf10 (11716521_a_at) / Fold change /veh C10orf10 (11716521_a_at) / RFU C5orf56 (11738089_at) / Fold change /veh C5orf56 (11738089_at) / RFU CYB561 (11721691_x_at) / Fold change /veh CYB561 (11721691_x_at) / RFU ANKRD19P (11752326_a_at) / Fold change /veh ANKRD19P (11752326_a_at) / RFU OR2T12 /// OR2T33 /// OR2T8 (11738714_s_at) / Fold change /veh OR2T12 /// OR2T33 /// OR2T8 (11738714_s_at) / RFU VCAN (11748164_a_at) / Fold change /veh VCAN (11748164_a_at) / RFU JSRP1 (11732532_at) / Fold change /veh JSRP1 (11732532_at) / RFU KRTAP10-11 (11738290_x_at) / Fold change /veh KRTAP10-11 (11738290_x_at) / RFU MYO3A (11730013_a_at) / Fold change /veh MYO3A (11730013_a_at) / RFU EBF3 (11725865_a_at) / Fold change /veh EBF3 (11725865_a_at) / RFU CAMK2N1 (11719241_x_at) / Fold change /veh CAMK2N1 (11719241_x_at) / RFU C5orf56 (11738088_a_at) / Fold change /veh C5orf56 (11738088_a_at) / RFU OLFML3 (11715873_a_at) / Fold change /veh OLFML3 (11715873_a_at) / RFU LOC100653217 /// NTM (11731650_a_at) / Fold change /veh LOC100653217 /// NTM (11731650_a_at) / RFU MAPK11 (11762145_a_at) / Fold change /veh MAPK11 (11762145_a_at) / RFU FIZ1 (11724087_x_at) / Fold change /veh FIZ1 (11724087_x_at) / RFU OASL (11726364_x_at) / Fold change /veh OASL (11726364_x_at) / RFU SOX15 (11748057_x_at) / Fold change /veh SOX15 (11748057_x_at) / RFU CD79A (11719716_a_at) / Fold change /veh CD79A (11719716_a_at) / RFU HIST1H1D (11736915_at) / Fold change /veh HIST1H1D (11736915_at) / RFU CASKIN2 (11723855_a_at) / Fold change /veh CASKIN2 (11723855_a_at) / RFU LOC730098 (11760151_x_at) / Fold change /veh LOC730098 (11760151_x_at) / RFU OR4N2 (11742367_at) / Fold change /veh OR4N2 (11742367_at) / RFU PRRT2 (11749266_a_at) / Fold change /veh PRRT2 (11749266_a_at) / RFU SNX32 (11753110_a_at) / Fold change /veh SNX32 (11753110_a_at) / RFU CDHR5 (11726645_a_at) / Fold change /veh CDHR5 (11726645_a_at) / RFU RCAN1 (11760418_a_at) / Fold change /veh RCAN1 (11760418_a_at) / RFU FAM167A (11723789_a_at) / Fold change /veh FAM167A (11723789_a_at) / RFU FAM26E (11764081_at) / Fold change /veh FAM26E (11764081_at) / RFU ISYNA1 (11749810_s_at) / Fold change /veh ISYNA1 (11749810_s_at) / RFU ACY1 (11761880_at) / Fold change /veh ACY1 (11761880_at) / RFU 11764098_at / Fold change /veh 11764098_at / RFU SAMD14 (11745864_x_at) / Fold change /veh SAMD14 (11745864_x_at) / RFU NPB (11741838_a_at) / Fold change /veh NPB (11741838_a_at) / RFU TMPRSS6 (11731388_a_at) / Fold change /veh TMPRSS6 (11731388_a_at) / RFU KRTAP10-2 (11738614_at) / Fold change /veh KRTAP10-2 (11738614_at) / RFU ARHGAP8 /// PRR5-ARHGAP8 (11727945_x_at) / Fold change /veh ARHGAP8 /// PRR5-ARHGAP8 (11727945_x_at) / RFU KRTAP5-7 /// NADSYN1 (11734609_at) / Fold change /veh KRTAP5-7 /// NADSYN1 (11734609_at) / RFU RASL12 (11751679_a_at) / Fold change /veh RASL12 (11751679_a_at) / RFU CDKN2B (11736163_a_at) / Fold change /veh CDKN2B (11736163_a_at) / RFU PRF1 (11729649_at) / Fold change /veh PRF1 (11729649_at) / RFU, ZNF638 /// ZNF638-IT1 / Fold change vs veh, ZNF638 /// ZNF638-IT1 / RFU, PANK3 / Fold change vs veh, PANK3 / RFU, SH3YL1 / Fold change vs veh, SH3YL1 / RFU, ZEB2 / Fold change vs veh, ZEB2 / RFU, NRIP1 / Fold change vs veh, NRIP1 / RFU, PTTG1IP / Fold change vs veh, PTTG1IP / RFU, CAPN2 / Fold change vs veh, CAPN2 / RFU, MED14 / Fold change vs veh, MED14 / RFU, SNORA58 / Fold change vs veh, SNORA58 / RFU, C1orf63 / Fold change vs veh, C1orf63 / RFU, LRRFIP1 / Fold change vs veh, LRRFIP1 / RFU, NDUFAF7 / Fold change vs veh, NDUFAF7 / RFU, SLC12A2 / Fold change vs veh, SLC12A2 / RFU, IBTK / Fold change vs veh, IBTK / RFU, ESF1 / Fold change vs veh, ESF1 / Fold change vs veh, TMEM50B / RFU, TAOK1 / Fold change vs veh, TAOK1 / RFU, ACBD3 / Fold change vs veh, ACBD3 / RFU, TMA16 / Fold change vs veh, TMA16 / RFU, RWDD3 / Fold change vs veh, RWDD3 / RFU, BCAT1 / Fold change vs veh, BCAT1 / RFU, EDEM3 / Fold change vs veh, EDEM3 / RFU, TMEM33 / Fold change vs veh, TMEM33 / RFU, WDR75 / Fold change vs veh, WDR75 / RFU, AHCTF1 / Fold change vs veh, AHCTF1 / RFU, TFRC / Fold change vs veh, TFRC / RFU, ZDHHC17 / Fold change vs veh, ZDHHC17 / RFU, NOM1 / Fold change vs veh, NOM1 / RFU, ARL8B / Fold change vs veh, ARL8B / RFU, ZBTB11 / Fold change vs veh, ZBTB11 / RFU, TAMM41 / Fold change vs veh, TAMM41 / RFU, KIAA1704 /// LOC100996395 / Fold change vs veh, KIAA1704 /// LOC100996395 / RFU, ING1 / Fold change vs veh, ING1 / RFU, TRMT61B / Fold change vs veh, TRMT61B / RFU, FUBP3 / Fold change vs veh, FUBP3 / RFU, TP53 / Fold change vs veh, TP53 / RFU, TNKS2 / Fold change vs veh, TNKS2 / RFU, ZFP14 / Fold change vs veh, ZFP14 / RFU, ACTR2 / Fold change vs veh, ACTR2 / RFU, PPP3R1 / Fold change vs veh, PPP3R1 / RFU, PIK3R1 / Fold change vs veh, PIK3R1 / RFU, HNRNPA1 / Fold change vs veh, HNRNPA1 / RFU, RNF170 / Fold change vs veh, RNF170 / RFU, ZNF28 / Fold change vs veh, ZNF28 / RFU, RNGTT / Fold change vs veh, RNGTT / RFU, OGT / Fold change vs veh, OGT / RFU, BRD1 / Fold change vs veh, BRD1 / RFU, MARS / Fold change vs veh, MARS / RFU, ZNF655 / Fold change vs veh, ZNF655 / RFU, FAHD1 / Fold change vs veh, FAHD1 / RFU, BDP1 / Fold change vs veh, BDP1 / RFU, LRRCC1 / Fold change vs veh, LRRCC1 / RFU, ARID1A / Fold change vs veh, ARID1A / RFU, ZNF146 / Fold change vs veh, ZNF146 / RFU, ZNF330 / Fold change vs veh, ZNF330 / RFU, GPN3 / Fold change vs veh, GPN3 / RFU, C9orf123 / Fold change vs veh, C9orf123 / RFU, N4BP2L2 / Fold change vs veh, N4BP2L2 / RFU, ARFIP1 / Fold change vs veh, ARFIP1 / RFU, FAM179B / Fold change vs veh, FAM179B / RFU, BCL10 / Fold change vs veh, BCL10 / RFU, UHRF1BP1L / Fold change vs veh, UHRF1BP1L / RFU, BET1 / Fold change vs veh, BET1 / RFU, CNOT2 / Fold change vs veh, CNOT2 / RFU, ZNF268 / Fold change vs veh, ZNF268 / Fold change vs veh, ZNF507 / RFU, DGCR2 / Fold change vs veh, DGCR2 / RFU, WDSUB1 / Fold change vs veh, WDSUB1 / Fold change vs veh, HSP90B1 /// MIR3652 / RFU, ADSS / Fold change vs veh, ADSS / RFU, GK / Fold change vs veh, GK / RFU, ZNF148 / Fold change vs veh, ZNF148 / RFU, TAF9 / Fold change vs veh, TAF9 / RFU, SLC1A5 / Fold change vs veh, SLC1A5 / RFU, SLMO2 / Fold change vs veh, SLMO2 / RFU, ABCC4 / Fold change vs veh, ABCC4 / RFU, LOC101060439 /// RAP1B / Fold change vs veh, LOC101060439 /// RAP1B / RFU, RFX7 / Fold change vs veh, RFX7 / RFU, GTPBP10 / Fold change vs veh, GTPBP10 / RFU, CNEP1R1 / Fold change vs veh, CNEP1R1 / RFU, BIVM-ERCC5 /// ERCC5 / Fold change vs veh, BIVM-ERCC5 /// ERCC5 / RFU, ILF3 / Fold change vs veh, ILF3 / RFU 11762660_at / Fold change /veh 11762660_at / RFU VCAN (11757783_s_at) / Fold change /veh VCAN (11757783_s_at) / RFU DDX43 (11728927_at) / Fold change /veh DDX43 (11728927_at) / RFU KRT8 (11758188_x_at) / Fold change /veh KRT8 (11758188_x_at) / RFU NKD1 (11759106_at) / Fold change /veh NKD1 (11759106_at) / RFU SRD5A1 (11742802_a_at) / Fold change /veh SRD5A1 (11742802_a_at) / RFU TPSAB1 /// TPSB2 (11721975_s_at) / Fold change /veh TPSAB1 /// TPSB2 (11721975_s_at) / RFU GSTM3 (11746129_a_at) / Fold change /veh GSTM3 (11746129_a_at) / RFU IL23R (11737362_x_at) / Fold change /veh IL23R (11737362_x_at) / RFU TMEM51 (11727254_a_at) / Fold change /veh TMEM51 (11727254_a_at) / RFU PIWIL2 (11732686_x_at) / Fold change /veh PIWIL2 (11732686_x_at) / RFU ORM1 (11744905_x_at) / Fold change /veh ORM1 (11744905_x_at) / RFU CCDC152 (11743942_at) / Fold change /veh CCDC152 (11743942_at) / RFU ECM1 (11717891_a_at) / Fold change /veh ECM1 (11717891_a_at) / RFU IL23R (11748794_a_at) / Fold change /veh IL23R (11748794_a_at) / RFU TNFAIP8L3 (11732012_x_at) / Fold change /veh TNFAIP8L3 (11732012_x_at) / RFU MBOAT4 (11741988_at) / Fold change /veh MBOAT4 (11741988_at) / RFU 11764193_at / Fold change /veh 11764193_at / RFU TMEM53 (11763286_at) / Fold change /veh TMEM53 (11763286_at) / RFU MAGEB2 (11727129_at) / Fold change /veh MAGEB2 (11727129_at) / RFU TMEM200A (11744735_a_at) / Fold change /veh TMEM200A (11744735_a_at) / RFU CCDC152 (11751479_a_at) / Fold change /veh CCDC152 (11751479_a_at) / RFU FAM211A (11726209_a_at) / Fold change /veh FAM211A (11726209_a_at) / RFU RGS16 (11746705_a_at) / Fold change /veh RGS16 (11746705_a_at) / RFU VCAN (11755009_s_at) / Fold change /veh VCAN (11755009_s_at) / RFU RHOB (11743442_s_at) / Fold change /veh RHOB (11743442_s_at) / RFU RGS16 (11720943_a_at) / Fold change /veh RGS16 (11720943_a_at) / RFU RGS16 (11720944_at) / Fold change /veh RGS16 (11720944_at) / RFU, VPS4B / Fold change vs veh, VPS4B / RFU, CREB1 / Fold change vs veh, CREB1 / RFU, DNAJC13 / Fold change vs veh, DNAJC13 / RFU, GNAQ / Fold change vs veh, GNAQ / RFU, CDK5R1 / Fold change vs veh, CDK5R1 / RFU, ZRANB3 / Fold change vs veh, ZRANB3 / RFU, CUL4A / Fold change vs veh, CUL4A / RFU, CCNY / Fold change vs veh, CCNY / RFU, UFL1 / Fold change vs veh, UFL1 / RFU, COG3 / Fold change vs veh, COG3 / RFU, DIAPH2 / Fold change vs veh, DIAPH2 / RFU, SKA2 / Fold change vs veh, SKA2 / RFU, AFF3 / Fold change vs veh, AFF3 / RFU, LMF1 / Fold change vs veh, LMF1 / RFU, IPO11 / Fold change vs veh, IPO11 / RFU, DFFB / Fold change vs veh, DFFB / RFU, FOXP1 / Fold change vs veh, FOXP1 / RFU, CARD8 / Fold change vs veh, CARD8 / RFU, STRN3 / Fold change vs veh, STRN3 / RFU, ADK / Fold change vs veh, ADK / RFU, RASSF2 / Fold change vs veh, RASSF2 / RFU, WIPF1 / Fold change vs veh, WIPF1 / RFU, LARP1B / Fold change vs veh, LARP1B / RFU, RASA1 / Fold change vs veh, RASA1 / RFU, RB1 / Fold change vs veh, RB1 / RFU, PPFIA1 / Fold change vs veh, PPFIA1 / RFU, MAT2A / Fold change vs veh, MAT2A / RFU, CCT5 / Fold change vs veh, CCT5 / RFU, WDR92 / Fold change vs veh, WDR92 / RFU, CUX1 / Fold change vs veh, CUX1 / RFU, TTC7A / Fold change vs veh, TTC7A / RFU, TMEM135 / Fold change vs veh, TMEM135 / RFU, DEPTOR / Fold change vs veh, DEPTOR / RFU, CPM / Fold change vs veh, CPM / RFU, DNAJB6 / Fold change vs veh, DNAJB6 / RFU, CACNA2D3 / Fold change vs veh, CACNA2D3 / RFU, DTX4 / Fold change vs veh, DTX4 / RFU, TFCP2 / Fold change vs veh, TFCP2 / RFU, GMCL1 /// GMCL1P1 / Fold change vs veh, GMCL1 /// GMCL1P1 / RFU, AEBP2 / Fold change vs veh, AEBP2 / RFU, SNHG1 /// SNORD22 /// SNORD25 /// SNORD26 /// SNORD27 /// SNORD28 /// SNORD29 /// SNORD31 / Fold change vs veh, SNHG1 /// SNORD22 /// SNORD25 /// SNORD26 /// SNORD27 /// SNORD28 /// SNORD29 /// SNORD31 / Fold change (Aza/veh), C12orf56 (ProbeSet 11735607_a_at) / Fold change (ACY-1035/veh), C12orf56 (ProbeSet 11735607_a_at) / Fold change (Aza/veh), FGFR1OP (ProbeSet 11751329_s_at) / Fold change (ACY-1035/veh), FGFR1OP (ProbeSet 11751329_s_at) / Fold change (Aza/veh), VPS36 (ProbeSet 11739960_a_at) / Fold change (ACY-1035/veh), VPS36 (ProbeSet 11739960_a_at) / RFU SYPL1 (11715823_x_at) / Fold change /veh SYPL1 (11715823_x_at) / RFU IGFBP7 (11715501_s_at) / Fold change /veh IGFBP7 (11715501_s_at) / RFU REEP3 (11722064_at) / Fold change /veh REEP3 (11722064_at) / RFU IGLL1 (11728026_x_at) / Fold change /veh IGLL1 (11728026_x_at): dose or concentration left out as unconfirmed
Conditions: MV-4-11 cells, 48 hours

SMILES: Nc1ncn([C@@H]2O[C@H](CO)[C@@H](O)[C@H]2O)c(=O)n1 [azacitidine]
- Fold change /veh ISYNA1 (11749810_s_at): 1.06
